Assay: Solid stability test at high temperature, high humidity and strong light
Assay type: physicochemical
Protocol: Content Determination Method
Device: Agilent 1260 High Performance Liquid Chromatograph with DAD detector or Shimadzu LC-20A High Performance Liquid Chromatograph with PDA detector
Detailed Chromatographic parameters are as follows:
Chromatographic column: Agilent Eclipse plus C18 (4.6 mm×150 mm, 3.5 μm)
Column temperature: 40° C.
Detecting wavelength: 230 nm
Mobile Phase A: 0.04% trifluoroacetic acid aqueous solution (V/V)
Mobile Phase B: acetonitrile
Diluent: acetonitrile: purified water=3:1 (v/v)
Probe Wash: acetonitrile: purified water=3:1 (v/v)
Gradient elution procedure: […]
The samples placed under high temperature and high humidity conditions were placed in a desiccator for inspection, and the samples were taken on the 5th, 10th and 30th days for testing, and the test results were compared with the initial test results of day 0. The samples placed under strong light were covered with a transparent lid with a sealing film, and the samples were taken on the 5th and 10th days for testing, and the test results were compared with the initial test results on day 0.

[1] = High humidity (Room Temperature/Relative Humidity 92.5%, Open), Day 5
[2] = High humidity (Room Temperature/Relative Humidity 92.5%, Open), Day 10
[3] = High humidity (Room Temperature/Relative Humidity 92.5%, Open), Day 30
[4] = High temperature (60° C., Open), Day 5
[5] = High temperature (60° C., Open), Day 10
[6] = High temperature (60° C., Open), Day 30
[7] = Strong light (4500 ± 500 lux, 90 μw/cm^2, Sealed), Day 5
[8] = Strong light (4500 ± 500 lux, 90 μw/cm^2, Sealed), Day 10

Appearance (Day 0 (initial)): White
Content (Day 0 (initial)): 99.5%
Total Impurity (Day 0 (initial)): 0.11%
Appearance [1]: White
Content [1]: 99.0%
Total Impurity [1]: 0.16%
Appearance [2]: White
Content [2]: 98.9%
Total Impurity [2]: 0.16%
Appearance [3]: White
Content [3]: 99.0%
Total Impurity [3]: 0.16%
Appearance [4]: White
Content [4]: 99.2%
Total Impurity [4]: 0.16%
Appearance [5]: White
Content [5]: 98.8%
Total Impurity [5]: 0.16%
Appearance [6]: White
Content [6]: 99.0%
Total Impurity [6]: 0.16%
Appearance [7]: White
Content [7]: 98.8%
Total Impurity [7]: 0.11%
Appearance [8]: White
Content [8]: 98.6%
Total Impurity [8]: 0.11%
Solid stability (conclusion) (high temperature, high humidity or strong light conditions): good stability
Structure (SMILES): CCOc1cc([C@@H](CS(C)(=O)=O)n2c(=O)[nH]c3c(C)c(-c4ccccc4F)cnc32)ccc1OC [Crystal Form A of Compound 1]
